Test results as given in PubChem BioAssay (NCI).
Several values for one entry are separate records, joined by “and”; a condition that tells them apart may be missing. Equal entries are not always repeated.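 Compound exposure: 48 hours, 5 concentrations, 96-well plates. GI50: concentration for 50% inhibition of growth. Definition used: TGI = concentration required for complete inhibition of growth.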

Tests used:
Assay in all cases: NCI-60 cell line screen, 48 h
[1] = system: NCI-H460 lung
[2] = system: HT29 colon
[3] = system: SNB-19 CNS
[4] = system: UACC-62 melanoma
[5] = system: K-562 leukemia
[6] = system: SF-295 CNS
[7] = system: CAKI-1 renal
[8] = system: MDA-MB-231 breast
[9] = system: MDA-MB-435
[10] = system: HOP-92 NSCLC

SMILES	TGI [1]	TGI [2]	TGI [3]	TGI [4]	TGI [5]	TGI [6]	GI50 [1] [µM]	GI50 [2] [µM]	GI50 [7] [µM]	TGI [7]	GI50 [8] [µM]	TGI [8] [µM]	GI50 [3] [µM]	GI50 [4] [µM]	GI50 [5] [µM]	GI50 [6] [µM]	GI50 [9] [µM]	TGI [9] [µM]	GI50 [10] [µM]	TGI [10]
C=C[C@H]1C=Cc2c(OC)cccc2[C@@H]1COP1(=S)NC(C)C(c2ccccc2)O1 (stereo not given in full)	> 100 µM	> 100 µM	> 100 µM	> 100 µM	> 100 µM	> 100 µM														
Nc1ccccc1C#Cc1ccccc1C#Cc1cnccn1	20.5 µM	53 µM	40.5 µM	28 µM	93.1 µM	24 µM	7.87	24.8	14.3	29.2 µM	14.3	29.3	20.1	14.6	26.1	11.8	3.48	13.6		
CSC1(CC(=O)N2CCCCC2)C(=O)Nc2ccccc21 (stereo not given)	> 100 µM	> 100 µM	> 100 µM	> 100 µM	> 100 µM	> 100 µM												> 100		
CC#CC(=O)N1CC[C@@H](n2c(=O)n(-c3ccc(Oc4ccccc4)cc3)c3c(N)ncnc32)C1	> 100 µM	> 100 µM	> 100 µM	42.8 µM		> 100 µM	33	34.7	13.8	> 100 µM	19.5	72.6	37.4	14.8		29.5	27.4	> 100	16.4	68.1 µM
Cc1ccc(NC(=O)CC2C(=O)Nc3ccccc3S2=O)c(C)c1 (stereo not given)	> 64.3 µM	20.4 µM	30.8 µM	42.4 µM	> 87.1 µM	29.7 µM				> 48.4 µM										29.8 µM
COc1ccc(C2CC(=O)c3c(O)c(OC)c(OC)c(OC)c3O2)cc1O (stereo not given)		> 64.5 µM	> 100 µM	> 73.7 µM	> 100 µM	> 100 µM	0.195	3.4	0.43	> 100 µM	0.625	> 100	0.0833	0.504	0.0365	0.374			0.518	82.4 µM
COc1cc(Nc2nc3cc(C(F)(F)F)ccc3nc2C)cc(OC)c1OC	17.7 µM	13 µM		13.3 µM	20.1 µM	4.91 µM				20.8 µM										0.95 µM
FC(F)(F)c1cccc(C2SCc3nc4ccccc4n32)c1 (stereo not given)		> 100 µM	> 100 µM	> 100 µM	> 100 µM	> 100 µM				> 100 µM										32.2 µM
COc1ccc(C2C3=C(COC3=O)Oc3cc4c(cc32)OCO4)cc1 (stereo not given)	> 100 µM	22.5 µM	> 100 µM	> 100 µM	> 100 µM	69.6 µM				> 100 µM										68.1 µM
O=C(Cc1ccccc1)NS(=O)(=O)c1ccccc1	> 100 µM	> 100 µM	> 100 µM	> 100 µM	> 100 µM	> 100 µM				> 100 µM										> 100 µM
Cc1c(CC/C(=N\Nc2ccc([N+](=O)[O-])cc2[N+](=O)[O-])c2ccccc2)c2ccccc2n1C	> 100 µM	> 100 µM	> 100 µM	> 100 µM	> 31.6 µM	> 100 µM				> 100 µM										> 100 µM
O=NN(CCCl)C(=O)N[C@H]1CCCC[C@@H]1Cl	> 100 µM	> 100 µM	> 100 µM		> 100 µM	> 100 µM				> 100 µM										> 100 µM
CC(C)c1ccc2nc3ccc(C(=O)NCCN4CCN(c5ccccc5)CC4)cn3c(=O)c2c1	> 100 µM	> 100 µM	> 100 µM	> 100 µM	> 100 µM	4.91 µM				> 100 µM		> 100								
c1ccc2c(c1)[nH]c1c2ncc2[nH]c3ccccc3c21	5.44 µM	11.1 µM	10.7 µM	3.36 µM	8.3 µM	11.4 µM				13.7 µM										8.71 µM
CC1=Nc2ccccc2C12C(c1ccccc1)C(c1ccccc1)C(=O)N1c3ccccc3CC12 (stereo not given)	> 100 µM	> 100 µM	> 100 µM	> 100 µM	> 100 µM	> 100 µM				> 100 µM										> 100 µM
CCOC(=O)C(C(=O)OCC)=c1sc(=C(C(=O)OCC)C(=O)OCC)s1	> 100 µM	> 100 µM		> 100 µM	> 100 µM	> 100 µM				> 100 µM										> 100 µM
C[CH2][Sn]([CH2]C)([O]C(=O)c1ccc(F)cc1)[O][Sn]([CH2]C)([CH2]C)[O]C(=O)c1ccc(F)cc1	> 100 µM	> 100 µM	> 100 µM	> 100 µM	78.6 µM	> 100 µM	> 100	> 100	12.2	24.9 µM			> 100	> 100	20.1	> 100			19.1	59 µM
COC(C)(C)[C@H](O)C(O)CC(C)[C@@H]1CCC23CC12CCC1[C@@]2(C)CCC(OC(C)=O)C(C)(C)C2CC(OC2OC(COC(C)=O)C(O)C(O)C2O)[C@]13C (stereo not given in full)	10.3 µM and 14.7 µM	2.49 µM and 3.67 µM	14.5 µM and 20 µM	9.47 µM and 19.2 µM	10.6 µM and 21.4 µM	10.1 µM and 7.53 µM	4.69	1.83	8.27	10.2 µM and 20.2 µM				6.28	4.68	2.17			4.37	11.6 µM and 16.9 µM
O=C(O)[C@@H](NS(=O)(=O)c1ccc([N+](=O)[O-])cc1)c1ccccc1	> 100 µM	> 100 µM	> 100 µM	> 100 µM	> 100 µM	> 100 µM				> 100 µM										> 100 µM
CC(C)c1cccc(C(C)C)c1NC(=O)CCC(=O)NN	> 100 µM	> 100 µM	> 100 µM	> 100 µM	> 100 µM	> 100 µM				> 100 µM										> 100 µM
CCOC(=O)c1cc(OC(=O)CC)c2c(OC)ccc(OC)c2c1	> 100 µM		> 100 µM	> 100 µM	> 100 µM					> 100 µM										
CCCN1C(=O)CNC(=O)c2[nH]cnc21	> 100 µM	> 100 µM	> 100 µM	> 100 µM	> 100 µM	> 100 µM				> 100 µM										> 100 µM
